The record followed here is patent US9062041B2 (Bayer Intellectual Property GmbH, priority 2011, dated 2015).

Common to all, as to assay type: cell-based
For test [1], the target named is EP2 subtype of the human PGE2 receptor (Homo sapiens, UniProt P43116). Put plainly: cAMP antagonism test on the human EP2 receptor (HTRF cAMP detection). The following applies: hEP2 receptor, read-out: Antagonism hEP2 IC50. The essentials: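 Read-out is a competitive HTRF for cAMP: lysate cAMP displaces cAMP-d2 from Eu cryptate-labelled antibody, and antagonism raises the 665/620 nm ratio. Compound (0.8 nM–16.5 μM) added to EP2 cells 20 min at RT before 60 min PGE2 challenge (3× stock 1.5 nM) with IBMX, followed by 20 min lysis.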
Sequence of EP2 subtype of the human PGE2 receptor (P43116 whole entry): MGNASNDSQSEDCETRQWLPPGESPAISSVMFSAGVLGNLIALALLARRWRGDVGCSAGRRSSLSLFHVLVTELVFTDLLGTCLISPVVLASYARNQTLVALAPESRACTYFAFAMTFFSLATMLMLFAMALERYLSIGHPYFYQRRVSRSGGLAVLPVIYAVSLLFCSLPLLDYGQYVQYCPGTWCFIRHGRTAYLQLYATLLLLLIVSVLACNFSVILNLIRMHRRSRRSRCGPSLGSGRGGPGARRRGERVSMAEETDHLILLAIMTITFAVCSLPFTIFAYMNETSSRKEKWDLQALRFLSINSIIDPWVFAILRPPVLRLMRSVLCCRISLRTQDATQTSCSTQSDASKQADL

For test [2], the target named is EP4 subtype of the human PGE2 receptor (Homo sapiens, UniProt P35408). Put plainly: cAMP antagonism test on the human EP4 receptor (HTRF cAMP detection). Particulars: selectivity towards hEP4, IC50 measured by cAMP antagonism test. The essentials:
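Competitive HTRF cAMP read-out (cAMP-d2 vs Eu-cryptate anti-cAMP antibody, 665/620 nm ratio) on lysed human EP4 cells. Compound (0.8 nM–16.5 μM) applied 20 min at RT before 60 min PGE2 challenge (3× solution 0.3 nM, IBMX present); 20 min lysis precedes reading.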

In test [3] the target is T1, human PGD receptor (Homo sapiens, UniProt Q13258).
T1 sequence (Q13258 1-359): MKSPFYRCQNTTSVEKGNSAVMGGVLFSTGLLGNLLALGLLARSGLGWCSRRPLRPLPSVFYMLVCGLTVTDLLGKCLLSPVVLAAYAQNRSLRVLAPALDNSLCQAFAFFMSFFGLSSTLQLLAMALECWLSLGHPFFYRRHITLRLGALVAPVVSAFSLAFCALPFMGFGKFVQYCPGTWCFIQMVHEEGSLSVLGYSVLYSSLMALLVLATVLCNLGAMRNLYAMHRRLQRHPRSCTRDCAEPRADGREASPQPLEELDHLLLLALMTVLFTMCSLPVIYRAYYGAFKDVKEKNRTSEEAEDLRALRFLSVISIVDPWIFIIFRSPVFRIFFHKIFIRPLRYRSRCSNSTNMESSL
Put plainly: cAMP antagonism test on the human prostaglandin D receptor (HTRF cAMP detection). Particulars: selectivity towards hDP, IC50 measured by cAMP antagonism test. The essentials:
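HTRF competition read-out (665/620 nm ratio ×10000), where higher FRET means less cAMP, i.e. antagonism. Compounds (0.8 nM–16.5 μM) were preincubated 20 min at RT with cells and cAMP-d2, PGD2 (3× solution, 6 nM) in IBMX-containing PBS added for 30 min at RT, then cells lysed 20 min.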

Sequence of EP4 subtype of the human PGE2 receptor (P35408 whole entry): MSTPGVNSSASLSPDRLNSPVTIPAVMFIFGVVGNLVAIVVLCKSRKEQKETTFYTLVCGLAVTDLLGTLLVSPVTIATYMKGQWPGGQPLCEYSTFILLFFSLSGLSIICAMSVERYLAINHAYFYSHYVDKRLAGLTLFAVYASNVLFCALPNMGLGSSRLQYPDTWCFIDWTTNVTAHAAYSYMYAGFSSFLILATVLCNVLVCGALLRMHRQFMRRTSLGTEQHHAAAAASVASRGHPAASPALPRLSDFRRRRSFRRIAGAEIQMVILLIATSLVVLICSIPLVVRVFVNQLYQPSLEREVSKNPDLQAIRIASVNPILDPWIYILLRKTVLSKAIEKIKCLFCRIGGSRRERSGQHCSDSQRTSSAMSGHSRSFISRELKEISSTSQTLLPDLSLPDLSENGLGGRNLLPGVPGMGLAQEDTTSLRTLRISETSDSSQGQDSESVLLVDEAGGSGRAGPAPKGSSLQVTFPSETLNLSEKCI

Regarding `Cc1cc2nn(CC3CN(C(=O)c4ccc(Cl)cc4)C3)cc2cc1C(=O)NCCOCC1CC1` [Example 198, 2-{[1-(4-chlorobenzoyl)azetidin-3-yl]methyl}-N-[2-(cyclopropylmethoxy)ethyl]-6-methyl-2H-indazol-5-carboxamide], the half-maximal inhibitory concentration (IC50) in test [1] was 0.153 µM. For the same compound, in test [2], the “Selectivity hEP2/hEP4” value is “xxx (xxx > 100)”. Moreover, the “Selectivity hEP2/hDP” value in test [3] is “xxx (xxx > 100)”.

Regarding `CCOc1c(C(=O)NCCOC)ccc2nn(CC3CN(C(=O)c4ccc(S(F)(F)(F)(F)F)cc4)C3)cc12` [Example 277, 4-ethoxy-N-(2-methoxyethyl)-2-({1-[4-(pentafluoro-λ^6-sulphanyl)benzoyl]-azetidin-3-yl}methyl)-2H-indazol-5-carboxamide], the concentration for half-maximal inhibition (IC50) in test [1] was determined as 0.0479 µM. For the same compound, in test [2], the “Selectivity hEP2/hEP4” value was “xxx (xxx > 100)”. In test [3], the “Selectivity hEP2/hDP” value is “xxx (xxx > 100)”.

Take `COCCNC(=O)c1ccc2nn(CC3CCN(C(=O)c4ccc(Oc5ccccc5F)cc4)CC3)cc2c1C` [Example 366, 2-({1-[4-(2-fluorophenoxy)benzoyl]piperidin-4-yl}methyl)-N-(2-methoxyethyl)-4-methyl-2H-indazol-5-carboxamide]: the IC50 in test [1] worked out at 0.0189 µM. In test [2], the “Selectivity hEP2/hEP4” value was “xxx (xxx > 100)”. For the same compound, in test [3], the “Selectivity hEP2/hDP” value is recorded as “xxx (xxx > 100)”.

Take `CCOc1c(C(=O)NCCOC)ccc2nn(CC3CCN(C(=O)c4ccc(Cl)cc4)CC3)cc12` [Example 274, 2-{[1-(4-chlorobenzoyl)piperidin-4-yl]methyl}-4-ethoxy-N-(2-methoxyethyl)-2H-indazol-5-carboxamide]: in test [1], the IC50 was 0.0446 µM. For the same compound, the “Selectivity hEP2/hEP4” value in test [2] is given as “xxx (xxx > 100)”. In test [3], the “Selectivity hEP2/hDP” value was “xxx (xxx > 100)”.

As for `Cc1c(C(=O)NCC(F)(F)F)ccc2nn(CC3CCN(C(=O)c4ccc(OC(F)(F)F)cc4)CC3)cc12` [Example 73, 4-methyl-N-(2,2,2-trifluoroethyl)-2-({1-[4-(trifluoromethoxy)benzoyl]piperidin-4-yl}methyl)-2H-indazol-5-carboxamide], the IC50 in test [1] amounted to 0.0778 µM. In addition, in test [2], the “Selectivity hEP2/hEP4” value is “xxx (xxx > 100)”. Besides, in test [3], the “Selectivity hEP2/hDP” value is recorded as “xxx (xxx > 100)”.

Turning to `COc1ccc(-c2ccc(C(=O)N3CCC(Cn4cc5c(C)c(C(=O)NCC(F)(F)F)ccc5n4)CC3)cc2)c(C)c1` [Example 318, 2-({1-[(4′-methoxy-2′-methylbiphenyl-4-yl)carbonyl]piperidin-4-yl}methyl)-4-methyl-N-(2,2,2-trifluoroethyl)-2H-indazol-5-carboxamide], in test [1], the concentration for half-maximal inhibition (IC50) worked out at 0.0263 µM. The “Selectivity hEP2/hEP4” value in test [2] was “xxx (xxx > 100)”. Also, in test [3], the “Selectivity hEP2/hDP” value is given as “xxx (xxx > 100)”.

For `Cc1cc2nn(CC3CN(C(=O)c4ccc(Cl)cc4)C3)cc2cc1C(=O)NCC(F)(F)F` [Example 190, 2-{[1-(4-chlorobenzoyl)azetidin-3-yl]methyl}-6-methyl-N-(2,2,2-trifluoroethyl)-2H-indazol-5-carboxamide], the concentration for half-maximal inhibition (IC50) in test [1] came out at 0.272 µM. In test [2], the “Selectivity hEP2/hEP4” value is “xx (xx: 10-100)”. In test [3], the “Selectivity hEP2/hDP” value was “xx (xx: 10-100)”.

Turning to `COCCNC(=O)c1ccc2nn(CC3CCN(C(=O)c4ccc(-c5ccc(OC)cc5)cc4)CC3)cc2c1C` [Example 351, 2-({1-[(4′-methoxybiphenyl-4-yl)carbonyl]piperidin-4-yl}methyl)-N-(2-methoxy-ethyl)-4-methyl-2H-indazol-5-carboxamide], the half-maximal inhibitory concentration (IC50) in test [1] was found to be 0.00684 µM. In test [2], the “Selectivity hEP2/hEP4” value was “xxx (xxx > 100)”. In addition, the “Selectivity hEP2/hDP” value in test [3] is given as “xxx (xxx > 100)”.

On to `COCCNC(=O)c1ccc2nn(CC3CCN(C(=O)c4ccc(Oc5nccc(C(F)(F)F)n5)cc4)CC3)cc2c1C` [Example 347, N-(2-methoxyethyl)-4-methyl-2-{[1-(4-{[4-(trifluoromethyl)pyrimidin-2-yl]-oxy}benzoyl)piperidin-4-yl]methyl}-2H-indazol-5-carboxamide], for which, in test [1], the IC50 is 0.00788 µM. In addition, in test [2], the “Selectivity hEP2/hEP4” value is reported as “xxx (xxx > 100)”. Also, in test [3], the “Selectivity hEP2/hDP” value is “xxx (xxx > 100)”.

As for `COCCNC(=O)c1ccc2nn(CC3CCN(C(=O)c4ccc(C5CC5)cc4)CC3)cc2c1C` [Example 20, 2-{[1-(4-cyclopropyl-benzoyl)piperidin-4-yl]methyl}-N-(2-methoxyethyl)-4-methyl-2H-indazol-5-carboxamide], the half-maximal inhibitory concentration (IC50) in test [1] worked out at 0.00733 µM. Moreover, in test [2], the “Selectivity hEP2/hEP4” value is reported as “xxx (xxx > 100)”. The “Selectivity hEP2/hDP” value in test [3] is on record as “xxx (xxx > 100)”.

For the compound `COc1ccc(-c2ccc(C(=O)N3CCC(Cn4cc5c(C)c(C(=O)NCC(F)(F)F)ccc5n4)CC3)cc2)cn1` [Example 322, 2-({1-[4-(6-methoxypyridin-3-yl)benzoyl]piperidin-4-yl}methyl)-4-methyl-N-(2,2,2-trifluoroethyl)-2H-indazol-5-carboxamide], the IC50 in test [1] came out at 0.0762 µM. In test [2], the “Selectivity hEP2/hEP4” value was “xxx (xxx > 100)”. In addition, in test [3], the “Selectivity hEP2/hDP” value is listed as “xxx (xxx > 100)”.

As to `Cc1c(C(=O)NCCCO)ccc2nn(CC3CCN(C(=O)c4ccc(-c5ccc(F)cc5)cc4)CC3)cc12` [Example 409, 2-({1-[(4′-fluorobiphenyl-4-yl)carbonyl]piperidin-4-yl}methyl)-N-(3-hydroxypropyl)-4-methyl-2H-indazol-5-carboxamide], the IC50 in test [1] was found to be 0.0318 µM. Also, in test [2], the “Selectivity hEP2/hEP4” value is recorded as “xxx (xxx > 100)”. Moreover, the “Selectivity hEP2/hDP” value in test [3] is given as “xxx (xxx > 100)”.

For `COC1CN(CCNC(=O)c2ccc3nn(CC4CCN(C(=O)c5ccc(Cl)cc5)CC4)cc3c2C)C1` [Example 238, 2-{[1-(4-chlorobenzoyl)piperidin-4-yl]methyl}-N-[2-(3-methoxyazetidin-1-yl)ethyl]-4-methyl-2H-indazol-5-carboxamide], the IC50 in test [1] came to 0.0324 µM. The “Selectivity hEP2/hEP4” value in test [2] is “xxx (xxx > 100)”. The “Selectivity hEP2/hDP” value in test [3] is given as “xxx (xxx > 100)”.

`COCCNC(=O)c1ccc2nn(CC3CN(C(=O)c4ccc(Cl)c(C(F)(F)F)c4)C3)cc2c1C` [Example 123, 2-({1-[4-chloro-3-(trifluoromethyl)benzoyl]azetidin-3-yl}methyl)-N-(2-methoxy-ethyl)-4-methyl-2H-indazol-5-carboxamide]: the IC50 in test [1] is 0.00892 µM. For the same compound, in test [2], the “Selectivity hEP2/hEP4” value was “xxx (xxx > 100)”. Moreover, the “Selectivity hEP2/hDP” value in test [3] is recorded as “xxx (xxx > 100)”.

For the compound `Cc1c(C(=O)NCC(F)(F)F)ccc2nn(CC3CN(C(=O)c4ccc(Oc5ccc(C(F)(F)F)cc5)cc4)C3)cc12` [Example 164, 4-methyl-N-(2,2,2-trifluoroethyl)-2-[(1-{4-[4-(trifluoromethyl)phenoxy]benzoyl}azetidin-3-yl)methyl]-2H-indazol-5-carboxamide], the IC50 in test [1] amounted to 0.0109 µM. Moreover, in test [2], the “Selectivity hEP2/hEP4” value was “xxx (xxx > 100)”. For the same compound, the “Selectivity hEP2/hDP” value in test [3] is recorded as “xxx (xxx > 100)”.

As to `Cc1cc2nn(CC3CN(C(=O)c4ccc(OC(F)(F)F)cc4)C3)cc2cc1C(=O)NCC(F)(F)F` [Example 195, 6-methyl-N-(2,2,2-trifluoroethyl)-2-({1-[4-(trifluoromethoxy)benzoyl]azetidin-3-yl}methyl)-2H-indazol-5-carboxamide], the half-inhibitory concentration (IC50) in test [1] is 0.227 µM. Also, in test [2], the “Selectivity hEP2/hEP4” value is on record as “xx (xx: 10-100)”. For the same compound, in test [3], the “Selectivity hEP2/hDP” value was “xx (xx: 10-100)”.
